Key:
Assay type in all cases: cell-based
Pseudomonas aeruginosa = experiment: agar plate disc-diffusion, antibacterial activity by inhibition zone; details: nutrient agar, 37° C., 48 hours, DMSO control subtracted
Protocol: (§1) The agar plate disc-diffusion method was applied. […] The discs were then placed onto the surface of agar plates (nutrient agar for bacteria and Sabouraud's dextrose agar for fungi) seeded with the test organism. Each plate contained 15 mL of the agar medium, previously seeded with 0.2 mL of the broth culture of each organism pregrown for 18 hours. The plates were incubated at 37° C. for 48 hours, and 72 hours for fungi. The inhibition zones was measured in millimeter. Discs impregnated with DMSO were used as a control, and its inhibition zone was subtracted from the tested compound actual inhibition zone.
(§2) The results of the antimicrobial testing can be observed in Tables 1 and 2, below, with ciprofloxacin serving as a reference.

Staphylococcus aureus = experiment: as above; details: nutrient agar, 37° C., 48 hours, DMSO control subtracted
Protocol: as §1, §2

Escherichia coli = experiment: as above; details: nutrient agar, 37° C., 48 hours, DMSO control subtracted
Protocol: as §1, §2

Bacillus Cereus = experiment: as above; details: nutrient agar, 37° C., 48 hours, DMSO control subtracted
Protocol: as §1, §2

[1] = test system: Chrysosporium keratinophilum; experiment: agar plate disc-diffusion, antifungal activity by inhibition zone; details: Sabouraud's dextrose agar, 37° C., 72 hours, DMSO control subtracted
Protocol: as §1, §2

Aspergillus flavus = experiment: as above; details: Sabouraud's dextrose agar, 37° C., 72 hours, DMSO control subtracted
Protocol: as §1, §2

different microbes = experiment: antimicrobial testing, overall statement on Tables 1 and 2; details: summary of Tables 1 and 2, bacteria and fungi
Protocol: The agar plate disc-diffusion method was applied. Sterilized filter papers (6 mm in diameter) were wetted with 10 μL of a solution of 1-(3-chlorobenzylideneamino)-5,5-diphenylimidazolidine-2,4-dione (4) to be tested, containing 10 mg/mL in DMSO, and the discs were allowed to air dry. The discs were then placed onto the surface of agar plates (nutrient agar for bacteria and Sabouraud's dextrose agar for fungi) seeded with the test organism. Each plate contained 15 mL of the agar medium, previously seeded with 0.2 mL of the broth culture of each organism pregrown for 18 hours. The plates were incubated at 37° C. for 48 hours, and 72 hours for fungi. The inhibition zones was measured in millimeter. Discs impregnated with DMSO were used as a control, and its inhibition zone was subtracted from the tested compound actual inhibition zone.
The antibacterial activity was screened against gram positive bacteria namely Bacillus cereus and Staphylococcus aureus and gram-negative bacterial strains namely Pseudomonas aeruginosa and Escherichia coli, while the antifungal activity was screened against Aspergillus flavus and Chrysosporium keratinophilum.

[2] = A = concentration of comp. = 10,000 μL
[3] = B = concentration of comp. = 30.000 μL
[4] = C = concentration of comp. = 50,000 μL

| SMILES | inhibition zone (Pseudomonas aeruginosa; [2]) [millimeter] | inhibition zone (Pseudomonas aeruginosa; [3]) [millimeter] | inhibition zone (Pseudomonas aeruginosa; [4]) [millimeter] | inhibition zone (Staphylococcus aureus; [2]) [millimeter] | inhibition zone (Staphylococcus aureus; [3]) [millimeter] | inhibition zone (Staphylococcus aureus; [4]) [millimeter] | inhibition zone (Escherichia coli; [2]) [millimeter] | inhibition zone (Escherichia coli; [3]) [millimeter] | inhibition zone (Escherichia coli; [4]) [millimeter] | inhibition zone (Bacillus Cereus; [2]) [millimeter] | inhibition zone (Bacillus Cereus; [3]) [millimeter] | inhibition zone (Bacillus Cereus; [4]) [millimeter] | inhibition zone [1, 2] [millimeter] | inhibition zone [1, 3] [millimeter] | inhibition zone [1, 4] [millimeter] | inhibition zone (Aspergillus flavus; [2]) [millimeter] | inhibition zone (Aspergillus flavus; [3]) [millimeter] | inhibition zone (Aspergillus flavus; [4]) [millimeter] | antimicrobial activities (in words) (different microbes) |
| --- | --- | --- | --- | --- | --- | --- | --- | --- | --- | --- | --- | --- | --- | --- | --- | --- | --- | --- | --- |
| O=C(O)c1cn(C2CC2)c2cc(N3CCNCC3)c(F)cc2c1=O [Cip., ciprofloxacin, reference compound] | 29 | 30 | 53 | 43 | 44 | 53 | 30 | 39 | 60 | 29 | 30 | 42 | 29 | 30 | 53 | 29 | 30 | 42 |  |
| O=C1NC(=O)C(c2ccccc2)(c2ccccc2)N1/N=C/c1cccc(Cl)c1 [Compound 4, 1-(3-chlorobenzylideneamino)-5,5-diphenylimidazolidine-2,4-dione] | 23 | 24 | 42 | 24 | 30 | 40 | 24 | 30 | 46 | 26 | 28 | 39 | 24 | 25 | 41 | 20 | 24 | 35 | high antimicrobial activities |
